Here are results for seven molecules from patent US20090062536A1, “USE OF SULFONANILIDE COMPOUNDS AS HERBICIDE” (Bayer CropScience AG, priority 2007, published 2009).

In one data set the test system is Cyperus serotinus. Description: Herbicidal effect to weeds in a paddy field, pot test. It counts as in vivo, Cyperus serotinus Rottboel. The following applies: 125 g ai/ha applied onto water surface; rated 3 weeks after treatment; 100% complete withering, 0% no effect. The source says: (§1) Test of herbicidal effect to weeds and damage on paddy rice in a paddy field: In a greenhouse, each three paddy rice seedlings (Oryza sativa L. cultivar: Nihonbare) were transplanted in each pot filled with paddy field soil. Each twenty forced sprouts of paddy rice (Oryza sativa L. cultivar: Nihonbare) were also inoculated in each pot. Then, any of seeds or tubers of Cyperus difformis L., Echinochloa crus-galli, Scirpus juncoides, SU-resistant Scirpus juncoides, annual broad leaf weeds (including Lindernia procumbens Philcox, Rotala indica Koehne, and Elatine triandra Schk), SU-resistant annual broad leaf weeds, Sagittaria pygmaea Miq, Cyperus serotinus Rottboel was inoculated in the pot and covered with water in about 2 to 3 cm depth. Five days after transplanting paddy rice, prescribed diluted solutions of formulations of the respective active compounds were applied onto the water surface. Each of the formulations was prepared as an emulsion by mixing 1 part by weight of active compound with 5 parts by weight of carrier and 1 part by weight of emulsifier (benzyloxy polyglycol ether). After the treatment, water depth of 3 cm was kept. A herbicidal effect and a herbicidal damage on paddy rice were investigated 3 weeks after the treatment. The herbicidal effect and the herbicidal damage on paddy rice were rated as 100% in the case of complete withering and 0% in the case of no herbicidal effect or no herbicidal damage.

For data set [1], the system named is SU-resistant annual broad leaf weeds. The description is as above. It is filed as in vivo. Conditions: 125 g ai/ha applied onto water surface; rated 3 weeks after treatment; 100% complete withering, 0% no effect.
Description: as §1

Data set [2] has as its system SU-resistant Scirpus juncoides. Described as above. It counts as in vivo. The following applies: 125 g ai/ha applied onto water surface; rated 3 weeks after treatment; 100% complete withering, 0% no effect.
Description: as §1

The subject of the next data set is annual broad leaf weeds. The description is as above. It is filed as in vivo. The following applies: 125 g ai/ha applied onto water surface; rated 3 weeks after treatment; 100% complete withering, 0% no effect.
Description: as §1

The subject of the next data set is Echinochloa crus-galli. The description is as above. It counts as in vivo. The following applies: 125 g ai/ha applied onto water surface; rated 3 weeks after treatment; 100% complete withering, 0% no effect.
Description: as §1

For a further data set, the system named is Scirpus juncoides. The data set is described as above. It is filed as in vivo. The following applies: 125 g ai/ha applied onto water surface; rated 3 weeks after treatment; 100% complete withering, 0% no effect.
Description: as §1

In a further data set the test system is Sagittaria pygmaea. Described as above. It is filed as in vivo, Sagittaria pygmaea Miq. Conditions: 125 g ai/ha applied onto water surface; rated 3 weeks after treatment; 100% complete withering, 0% no effect.
Description: as §1

In another data set the test system is transplanted rice. Description: Herbicidal damage on transplanted paddy rice, paddy field pot test. It counts as in vivo, Oryza sativa L. cultivar: Nihonbare. Conditions: 125 g ai/ha applied onto water surface 5 days after transplanting; rated 3 weeks after treatment; 100% complete withering, 0% no damage.
Description: as §1

The next data set deals with directley seeded rice. The data set can be described thus: Herbicidal damage on directly seeded paddy rice, paddy field pot test. It counts as in vivo, Oryza sativa L. cultivar: Nihonbare. The following applies: 125 g ai/ha applied onto water surface; rated 3 weeks after treatment; 100% complete withering, 0% no damage.
Description: as §1

With `COc1cc(OC)nc(C(SC)c2cccc(I)c2NS(=O)(=O)CC(F)(F)F)n1` (centres unmarked) [Compound 8, 2-iodo-6-[(4,6-dimethoxypyrimidin-2-yl)(methylthio)methyl]-N-2,2,2-trifluoroethanesulfonanilide], the “herbicidal effect Cyperus serotinus” value with Cyperus serotinus is 100%. Moreover, the “herbicidal effect SU-resistant annual broad leaf weeds” value in data set [1] was 100%. In addition, in data set [2], the “herbicidal effect SU-resistant Scirpus juncoides” value amounted to 90%. Besides, the “herbicidal effect annual broad leaf weeds” value with annual broad leaf weeds came to 100%. Besides, in the data set with Echinochloa crus-galli, the “herbicidal effect Echinochloa crus-galli” value is given as 100%. The “herbicidal effect Scirpus juncoides” value in the data set on Scirpus juncoides came to 100%. In addition, the “herbicidal effect Sagittaria pygmaea” value with Sagittaria pygmaea amounted to 100%. The “herbicidal damage on transplanted rice” value in the data set on transplanted rice is on record as 0%. In the data set with directley seeded rice, the “herbicidal damage on directley seeded rice” value is recorded as 10%.
In the case of `COc1cc(OC)nc(C(O)c2cccc(I)c2NS(=O)(=O)CC(F)(F)F)n1` (centres unmarked) [Compound 5, 2-iodo-6-[(4,6-dimethoxypyrimidin-2-yl)(hydroxy)methyl]-N-2,2,2-trifluoroethanesulfonanilide], the “herbicidal effect Cyperus serotinus” value in the data set with Cyperus serotinus stood at 100%. The “herbicidal effect SU-resistant annual broad leaf weeds” value in data set [1] was determined as 100%. For the same molecule, in data set [2], the “herbicidal effect SU-resistant Scirpus juncoides” value is 90%. Besides, the “herbicidal effect annual broad leaf weeds” value in the data set with annual broad leaf weeds is 100%. The “herbicidal effect Echinochloa crus-galli” value in the data set with Echinochloa crus-galli was 100%. The “herbicidal effect Scirpus juncoides” value with Scirpus juncoides worked out at 100%. Moreover, the “herbicidal effect Sagittaria pygmaea” value in the data set with Sagittaria pygmaea came out at 100%. The “herbicidal damage on transplanted rice” value in the data set with transplanted rice amounted to 20%. Further, the “herbicidal damage on directley seeded rice” value with directley seeded rice came to 30%.
On to `COc1cc(Cl)nc(C(=O)c2cccc(Cl)c2N(C)S(=O)(=O)C(F)F)n1` [Compound 51, N-{2-chloro-6-[(4-chloro-6-methoxypyrimidin-2-yl)carbonyl]phenyl}-N-methyl-1,1-difluoromethanesulfonamide], for which the “herbicidal effect Cyperus serotinus” value in the data set with Cyperus serotinus stood at 100%. In addition, in data set [2], the “herbicidal effect SU-resistant Scirpus juncoides” value was 90%. Besides, the “herbicidal effect annual broad leaf weeds” value in the data set with annual broad leaf weeds was determined as 90%. The “herbicidal effect Echinochloa crus-galli” value with Echinochloa crus-galli was determined as 100%. In the data set with Scirpus juncoides, the “herbicidal effect Scirpus juncoides” value stood at 100%. Besides, the “herbicidal effect Sagittaria pygmaea” value in the data set on Sagittaria pygmaea stood at 100%. Also, the “herbicidal damage on transplanted rice” value in the data set on transplanted rice is given as 10%. Further, the “herbicidal damage on directley seeded rice” value with directley seeded rice turned out to be 30%.
For `COc1cc(OC)nc(C(O)c2cccc(Br)c2NS(=O)(=O)CC(F)(F)F)n1` (centres unmarked) [Compound 1, 2-bromo-6-[(4,6-dimethoxypyrimidin-2-yl)(hydroxy)methyl]-N-2,2,2-trifluoroethanesulfonanilide], the “herbicidal effect Cyperus serotinus” value in the data set with Cyperus serotinus worked out at 100%. Moreover, the “herbicidal effect SU-resistant annual broad leaf weeds” value in data set [1] stood at 100%. Besides, the “herbicidal effect SU-resistant Scirpus juncoides” value in [2] is given as 100%. The “herbicidal effect annual broad leaf weeds” value in the data set on annual broad leaf weeds was found to be 100%. The “herbicidal effect Echinochloa crus-galli” value in the data set with Echinochloa crus-galli is 100%. Further, the “herbicidal effect Scirpus juncoides” value in the data set on Scirpus juncoides was determined as 100%. Further, the “herbicidal effect Sagittaria pygmaea” value in the data set with Sagittaria pygmaea worked out at 100%. Further, the “herbicidal damage on transplanted rice” value with transplanted rice is given as 0%. The “herbicidal damage on directley seeded rice” value in the data set on directley seeded rice is given as 10%.
As to `COc1cc(OC)nc(C(=O)c2cccc(Br)c2NS(=O)(=O)CC(F)(F)F)n1` [Compound 2, 2-bromo-6-[(4,6-dimethoxypyrimidin-2-yl)carbonyl]-N-2,2,2-trifluoroethanesulfonanilide], the “herbicidal effect Cyperus serotinus” value in the data set with Cyperus serotinus is listed as 100%. Also, the “herbicidal effect SU-resistant annual broad leaf weeds” value in [1] is 100%. For the same molecule, in data set [2], the “herbicidal effect SU-resistant Scirpus juncoides” value was found to be 100%. In the data set with annual broad leaf weeds, the “herbicidal effect annual broad leaf weeds” value was 100%. Also, in the data set on Echinochloa crus-galli, the “herbicidal effect Echinochloa crus-galli” value stood at 100%. In the data set with Scirpus juncoides, the “herbicidal effect Scirpus juncoides” value came out at 100%. Also, the “herbicidal effect Sagittaria pygmaea” value with Sagittaria pygmaea is 100%. The “herbicidal damage on transplanted rice” value with transplanted rice stood at 10%. In the data set with directley seeded rice, the “herbicidal damage on directley seeded rice” value is 20%.
In the case of `COc1cc(OC)nc(C(SC)c2cccc(Br)c2NS(=O)(=O)CC(F)(F)F)n1` (centres unmarked) [Compound 4, 2-bromo-6-[(4,6-dimethoxypyrimidin-2-yl)methylthiomethyl]-N-2,2,2-trifluoroethanesulfonanilide], the “herbicidal effect Cyperus serotinus” value in the data set on Cyperus serotinus amounted to 100%. In addition, in [1], the “herbicidal effect SU-resistant annual broad leaf weeds” value worked out at 100%. In [2], the “herbicidal effect SU-resistant Scirpus juncoides” value came to 90%. In the data set with annual broad leaf weeds, the “herbicidal effect annual broad leaf weeds” value was 100%. The “herbicidal effect Echinochloa crus-galli” value with Echinochloa crus-galli is 100%. Besides, in the data set with Scirpus juncoides, the “herbicidal effect Scirpus juncoides” value amounted to 100%. The “herbicidal effect Sagittaria pygmaea” value with Sagittaria pygmaea is 100%. The “herbicidal damage on transplanted rice” value in the data set with transplanted rice turned out to be 0%. Also, the “herbicidal damage on directley seeded rice” value with directley seeded rice is 10%.
Consider `COc1nc(OC)nc(C(=O)c2cccc(Br)c2N(C)S(=O)(=O)C(F)F)n1` [Compound 10, N-{2-bromo-6-[(4,6-dimethoxy-1,3,5-triazin-2-yl)carbonyl]phenyl}-N-methyl-1,1-difluoromethanesulfonamide], for which, in the data set with Cyperus serotinus, the “herbicidal effect Cyperus serotinus” value amounted to 100%. Besides, in [1], the “herbicidal effect SU-resistant annual broad leaf weeds” value was determined as 100%. Also, in data set [2], the “herbicidal effect SU-resistant Scirpus juncoides” value turned out to be 90%. For the same molecule, the “herbicidal effect annual broad leaf weeds” value in the data set on annual broad leaf weeds worked out at 90%. For the same molecule, the “herbicidal effect Echinochloa crus-galli” value in the data set with Echinochloa crus-galli amounted to 100%. Besides, the “herbicidal effect Scirpus juncoides” value in the data set with Scirpus juncoides is 100%. For the same molecule, in the data set with Sagittaria pygmaea, the “herbicidal effect Sagittaria pygmaea” value is on record as 100%. The “herbicidal damage on transplanted rice” value in the data set on transplanted rice came out at 10%. In the data set on directley seeded rice, the “herbicidal damage on directley seeded rice” value turned out to be 30%.
